Assay results reported in PubChem BioAssay AID1963851 (Molecular Pharmacology Branch, DTP, NCI, 2024).

Tested on: 188146-221-R-J1-PDC complex spheroid viability
Assay: Anticancer human tumor 188146-221-R-J1-PDC patient-derived colon adenocarcinoma cell line growth inhibition [POLQ]
Conditions: for IC50: curve of first compound; for viability, T/C: stronger effect = lower value
Method in brief: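 Complex spheroid viability model combining PDC tumour cells with endothelial (HUVEC) and MSC stromal cells. Novobiocin, ART-558 or RP6685 were tested singly and in combination with standard and investigational anticancer drugs. Each was titrated in half-log steps from near clinical Cmax, or from 10 microM where Cmax was unknown.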

[1] = second compound 0.0316 µM, first compound 0.0316 µM
[2] = second compound 0.0316 µM, first compound 0.1 µM
[3] = second compound 0.0316 µM, first compound 0.316 µM
[4] = second compound 0.0316 µM, first compound 1 µM
[5] = second compound 0.0316 µM, first compound 3.16 µM
[6] = second compound 0.0316 µM, first compound 10 µM
[7] = second compound 0.1 µM, first compound 0.0316 µM
[8] = second compound 0.1 µM, first compound 0.1 µM
[9] = second compound 0.1 µM, first compound 0.316 µM
[10] = second compound 0.1 µM, first compound 1 µM
[11] = second compound 0.1 µM, first compound 3.16 µM
[12] = second compound 0.1 µM, first compound 10 µM
[13] = second compound 0.316 µM, first compound 0.0316 µM
[14] = second compound 0.316 µM, first compound 0.1 µM
[15] = second compound 0.316 µM, first compound 0.316 µM
[16] = second compound 0.316 µM, first compound 1 µM
[17] = second compound 0.316 µM, first compound 3.16 µM
[18] = second compound 0.316 µM, first compound 10 µM
[19] = second compound 1 µM, first compound 0.0316 µM
[20] = second compound 1 µM, first compound 0.1 µM
[21] = second compound 1 µM, first compound 0.316 µM
[22] = second compound 1 µM, first compound 1 µM
[23] = second compound 1 µM, first compound 3.16 µM
[24] = second compound 1 µM, first compound 10 µM
[25] = second compound 3.16 µM, first compound 0.0316 µM
[26] = second compound 3.16 µM, first compound 0.1 µM
[27] = second compound 3.16 µM, first compound 0.316 µM
[28] = second compound 3.16 µM, first compound 1 µM
[29] = second compound 3.16 µM, first compound 3.16 µM
[30] = second compound 3.16 µM, first compound 10 µM
[31] = second compound 10 µM, first compound 0.0316 µM
[32] = second compound 10 µM, first compound 0.1 µM
[33] = second compound 10 µM, first compound 0.316 µM
[34] = second compound 10 µM, first compound 1 µM
[35] = second compound 10 µM, first compound 3.16 µM
[36] = second compound 10 µM, first compound 10 µM
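Note: spheroids exposed to compounds for seven days.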
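Throughout, for viability, T/C: 100% = DMSO vehicle control viability.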

SMILES: CC1COCCN1c1cc(-c2ccnn2C)c2ccnc(-c3ccn[nH]3)c2n1 (stereo unspecified) + Nc1ccc(C#CCN(C(=O)Cc2ncc(C(F)(F)F)cc2C(F)(F)F)c2ccc(F)cc2)nn1
- IC50 (second compound 0.0316 µM): 0.177 µM
- IC50 (second compound 0.1 µM): 0.228 µM
- IC50 (second compound 0.316 µM): 0.173 µM
- IC50 (second compound 1 µM): 0.142 µM
- IC50 (second compound 3.16 µM): 0.162 µM
- IC50 (second compound 10 µM): 0.176 µM
- viability, T/C [1]: 84.9%
- viability, T/C [2]: 63.2%
- viability, T/C [3]: 36.3%
- viability, T/C [4]: 22.6%
- viability, T/C [5]: 16.3%
- viability, T/C [6]: 14.5%
- viability, T/C [7]: 86.4%
- viability, T/C [8]: 72.8%
- viability, T/C [9]: 40.3%
- viability, T/C [10]: 22.3%
- viability, T/C [11]: 17.2%
- viability, T/C [12]: 12.9%
- viability, T/C [13]: 80%
- viability, T/C [14]: 61.1%
- viability, T/C [15]: 38.3%
- viability, T/C [16]: 20%
- viability, T/C [17]: 14.1%
- viability, T/C [18]: 15.8%
- viability, T/C [19]: 96.3%
- viability, T/C [20]: 54%
- viability, T/C [21]: 40.2%
- viability, T/C [22]: 19.2%
- viability, T/C [23]: 16.2%
- viability, T/C [24]: 15%
- viability, T/C [25]: 89.7%
- viability, T/C [26]: 56.7%
- viability, T/C [27]: 42.6%
- viability, T/C [28]: 19.6%
- viability, T/C [29]: 17.4%
- viability, T/C [30]: 14.2%
- viability, T/C [31]: 77.3%
- viability, T/C [32]: 66.1%
- viability, T/C [33]: 33.2%
- viability, T/C [34]: 19.8%
- viability, T/C [35]: 18.6%
- viability, T/C [36]: 14.7%

SMILES: O=C(c1cc(Cc2n[nH]c(=O)c3ccccc23)ccc1F)N1CCN(C(=O)C2CC2)CC1 + Cc1cccc(N(C)C(=O)C2C(O)CCN2c2nc(C)cc(C(F)(F)F)c2C#N)c1
- IC50 (second compound 0.0316 µM): > 10 µM
- IC50 (second compound 0.1 µM): > 10 µM
- IC50 (second compound 0.316 µM): > 10 µM
- IC50 (second compound 1 µM): > 10 µM
- IC50 (second compound 3.16 µM): > 10 µM
- IC50 (second compound 10 µM): > 10 µM
- viability, T/C [1]: 109%
- viability, T/C [2]: 105%
- viability, T/C [3]: 108%
- viability, T/C [4]: 92.8%
- viability, T/C [5]: 93.9%
- viability, T/C [6]: 73.9%
- viability, T/C [7]: 108%
- viability, T/C [8]: 103%
- viability, T/C [9]: 101%
- viability, T/C [10]: 101%
- viability, T/C [11]: 89.5%
- viability, T/C [12]: 88.8%
- viability, T/C [13]: 105%
- viability, T/C [14]: 102%
- viability, T/C [15]: 95.6%
- viability, T/C [16]: 101%
- viability, T/C [17]: 90.2%
- viability, T/C [18]: 77.8%
- viability, T/C [19]: 109%
- viability, T/C [20]: 106%
- viability, T/C [21]: 96.7%
- viability, T/C [22]: 103%
- viability, T/C [23]: 87.7%
- viability, T/C [24]: 78.4%
- viability, T/C [25]: 89.5%
- viability, T/C [26]: 102%
- viability, T/C [27]: 106%
- viability, T/C [28]: 86.7%
- viability, T/C [29]: 93.1%
- viability, T/C [30]: 76.9%
- viability, T/C [31]: 99.8%
- viability, T/C [32]: 90.1%
- viability, T/C [33]: 96.3%
- viability, T/C [34]: 98.2%
- viability, T/C [35]: 95.6%
- viability, T/C [36]: 82.1%

SMILES: C=CC(=O)N1CCN(c2nc(=O)n(-c3c(C)ccnc3C(C)C)c3nc(-c4c(O)cccc4F)c(F)cc23)C(C)C1 (stereo unspecified) + Cc1cccc(N(C)C(=O)C2C(O)CCN2c2nc(C)cc(C(F)(F)F)c2C#N)c1
- IC50 (second compound 0.0316 µM): > 10 µM
- IC50 (second compound 0.1 µM): > 10 µM
- IC50 (second compound 0.316 µM): > 10 µM
- IC50 (second compound 1 µM): > 10 µM
- IC50 (second compound 3.16 µM): > 10 µM
- IC50 (second compound 10 µM): > 10 µM
- viability, T/C [1]: 104%
- viability, T/C [2]: 103%
- viability, T/C [3]: 93%
- viability, T/C [4]: 107%
- viability, T/C [5]: 97%
- viability, T/C [6]: 83.8%
- viability, T/C [7]: 108%
- viability, T/C [8]: 105%
- viability, T/C [9]: 91.9%
- viability, T/C [10]: 103%
- viability, T/C [11]: 92.8%
- viability, T/C [12]: 89%
- viability, T/C [13]: 101%
- viability, T/C [14]: 105%
- viability, T/C [15]: 103%
- viability, T/C [16]: 95.5%
- viability, T/C [17]: 85.9%
- viability, T/C [18]: 81.5%
- viability, T/C [19]: 95.6%
- viability, T/C [20]: 107%
- viability, T/C [21]: 102%
- viability, T/C [22]: 104%
- viability, T/C [23]: 84.7%
- viability, T/C [24]: 73.3%
- viability, T/C [25]: 98.7%
- viability, T/C [26]: 104%
- viability, T/C [27]: 97.3%
- viability, T/C [28]: 100%
- viability, T/C [29]: 94.6%
- viability, T/C [30]: 83.4%
- viability, T/C [31]: 100%
- viability, T/C [32]: 82.3%
- viability, T/C [33]: 91.8%
- viability, T/C [34]: 84.8%
- viability, T/C [35]: 92.6%
- viability, T/C [36]: 77.2%
